ChEMBL document CHEMBL3885881, “DrugMatrix”

Species: Rattus norvegicus
Assay: DrugMatrix - Regimen: Daily Repeat
Format: toxicity, organism-based, Sprague-Dawley
Design: regimen Daily Repeat, gender Male, age 6-8 weeks
Details: in vivo, iv, vehicle 100 % SALINE; for ABSOLUTE BASOPHIL / ABSOLUTE EOSINOPHIL / ABSOLUTE LYMPHOCYTE / ABSOLUTE MONOCYTE / ABSOLUTE SEGMENTED NEUTROPHIL / BASOPHIL / EOSINOPHIL / ERYTHROCYTE COUNT / HEMATOCRIT / HEMOGLOBIN / LEUKOCYTE COUNT / LYMPHOCYTE / MEAN CORPUSCULAR HEMOGLOBIN / MEAN CORPUSCULAR HEMOGLOBIN CONCENTRATION / MEAN CORPUSCULAR VOLUME / MONOCYTE / NEUTROPHIL / NUCLEATED RED BLOOD CELLS / PLATELET COUNT: tissue Blood; for ALANINE AMINOTRANSFERASE / ALBUMIN / ALKALINE PHOSPHATASE / ASPARTATE AMINOTRANSFERASE / BLOOD UREA NITROGEN / CARBON DIOXIDE / CHLORIDE / CHOLESTEROL / CREATINE PHOSPHOKINASE / CREATININE / GLUCOSE / LACTATE DEHYDROGENASE / LIPASE / PHOSPHORUS / POTASSIUM / SODIUM / TOTAL BILIRUBIN / TOTAL PROTEIN / URIC ACID: tissue Plasma
[1] = 0 mg/kg, 72 h, dose level Control, time 3 day
[2] = 0 mg/kg, 120 h, dose level Control, time 5 day
[3] = 0.5 mg/kg, 72 h, dose level Low, time 3 day

CO[C@@]12[C@H](COC(N)=O)C3=C(C(=O)C(C)=C(N)C3=O)N1C[C@@H]1N[C@@H]12 [MITOMYCIN]
ABSOLUTE BASOPHIL [1]: 0 CELLS/uL
ABSOLUTE EOSINOPHIL [1]: 0 CELLS/uL
ABSOLUTE LYMPHOCYTE [1]: 7026.17 CELLS/uL
ABSOLUTE MONOCYTE [1]: 44.33 CELLS/uL
ABSOLUTE SEGMENTED NEUTROPHIL [1]: 379.5 CELLS/uL
BASOPHIL [1]: 0%
EOSINOPHIL [1]: 0%
ERYTHROCYTE COUNT [1]: 5.49 x10E6/uL
HEMATOCRIT [1]: 33.67%
HEMOGLOBIN [1]: 13.17 G/DL
LEUKOCYTE COUNT [1]: 7.45 x10E3/uL
LYMPHOCYTE [1]: 94%
MEAN CORPUSCULAR HEMOGLOBIN [1]: 24.03 pg
MEAN CORPUSCULAR HEMOGLOBIN CONCENTRATION [1]: 39.15 G/DL
MEAN CORPUSCULAR VOLUME [1]: 61.4 fL
MONOCYTE [1]: 0.67%
NEUTROPHIL [1]: 5.33%
NUCLEATED RED BLOOD CELLS [1]: 0.17 /100WBC
PLATELET COUNT [1]: 1062.5 x10E3/uL
ALANINE AMINOTRANSFERASE [1]: 53.17 u/L
ALBUMIN [1]: 4.33 G/DL
ALKALINE PHOSPHATASE [1]: 339.83 u/L
ASPARTATE AMINOTRANSFERASE [1]: 83.33 u/L
BLOOD UREA NITROGEN [1]: 16 mg/dL
CARBON DIOXIDE [1]: 32.5 mmol/L
CHLORIDE [1]: 98 MEQ/L
CHOLESTEROL [1]: 74.67 mg/dL
CREATINE PHOSPHOKINASE [1]: 284 u/L
CREATININE [1]: 0.2 mg/dL
GLUCOSE [1]: 128.67 mg/dL
LACTATE DEHYDROGENASE [1]: 110.33 u/L
LIPASE [1]: 9 u/L
PHOSPHORUS [1]: 11.73 mg/dL
POTASSIUM [1]: 6.34 MEQ/L
SODIUM [1]: 143.12 MEQ/L
TOTAL BILIRUBIN [1]: 0.18 mg/dL
TOTAL PROTEIN [1]: 6.2 G/DL
URIC ACID [1]: 1.28 mg/dL
ABSOLUTE BASOPHIL [2]: 0 CELLS/uL
ABSOLUTE EOSINOPHIL [2]: 26.67 CELLS/uL
ABSOLUTE LYMPHOCYTE [2]: 8334.17 CELLS/uL
ABSOLUTE MONOCYTE [2]: 29.5 CELLS/uL
BASOPHIL [2]: 0%
EOSINOPHIL [2]: 0.33%
ERYTHROCYTE COUNT [2]: 5.44 x10E6/uL
HEMATOCRIT [2]: 33.77%
HEMOGLOBIN [2]: 13.05 G/DL
LEUKOCYTE COUNT [2]: 8.98 x10E3/uL
LYMPHOCYTE [2]: 92.33%
MEAN CORPUSCULAR HEMOGLOBIN [2]: 24 pg
MEAN CORPUSCULAR HEMOGLOBIN CONCENTRATION [2]: 38.67 G/DL
MEAN CORPUSCULAR VOLUME [2]: 62.05 fL
MONOCYTE [2]: 0.33%
NEUTROPHIL [2]: 7%
NUCLEATED RED BLOOD CELLS [2]: 0 /100WBC
PLATELET COUNT [2]: 987 x10E3/uL
ALANINE AMINOTRANSFERASE [2]: 43.5 u/L
ALBUMIN [2]: 4.08 G/DL
ALKALINE PHOSPHATASE [2]: 310.17 u/L
ASPARTATE AMINOTRANSFERASE [2]: 76.67 u/L
BLOOD UREA NITROGEN [2]: 17 mg/dL
CARBON DIOXIDE [2]: 30.67 mmol/L
CHLORIDE [2]: 100.33 MEQ/L
CHOLESTEROL [2]: 69.33 mg/dL
CREATINE PHOSPHOKINASE [2]: 218.67 u/L
CREATININE [2]: 0.22 mg/dL
GLUCOSE [2]: 155.17 mg/dL
LACTATE DEHYDROGENASE [2]: 114.67 u/L
LIPASE [2]: 10.67 u/L
PHOSPHORUS [2]: 11.2 mg/dL
POTASSIUM [2]: 5.5 MEQ/L
SODIUM [2]: 144.12 MEQ/L
TOTAL BILIRUBIN [2]: 0.18 mg/dL
TOTAL PROTEIN [2]: 5.97 G/DL
URIC ACID [2]: 0.88 mg/dL
ABSOLUTE BASOPHIL [3]: 0 CELLS/uL
ABSOLUTE EOSINOPHIL [3]: 0 CELLS/uL
ABSOLUTE LYMPHOCYTE [3]: 8042 CELLS/uL
ABSOLUTE MONOCYTE [3]: 56.33 CELLS/uL
ABSOLUTE SEGMENTED NEUTROPHIL [3]: 601.67 CELLS/uL
BASOPHIL [3]: 0%
EOSINOPHIL [3]: 0%
ERYTHROCYTE COUNT [3]: 5.65 x10E6/uL
HEMATOCRIT [3]: 34.47%
HEMOGLOBIN [3]: 13.63 G/DL
LEUKOCYTE COUNT [3]: 8.7 x10E3/uL
LYMPHOCYTE [3]: 92.67%
MEAN CORPUSCULAR HEMOGLOBIN [3]: 24.13 pg
MEAN CORPUSCULAR HEMOGLOBIN CONCENTRATION [3]: 39.57 G/DL
MEAN CORPUSCULAR VOLUME [3]: 61.07 fL
MONOCYTE [3]: 0.67%
NEUTROPHIL [3]: 6.67%
NUCLEATED RED BLOOD CELLS [3]: 0 /100WBC
PLATELET COUNT [3]: 888.67 x10E3/uL
ALANINE AMINOTRANSFERASE [3]: 51.67 u/L
ALBUMIN [3]: 4.27 G/DL
ALKALINE PHOSPHATASE [3]: 324.67 u/L
ASPARTATE AMINOTRANSFERASE [3]: 87 u/L
BLOOD UREA NITROGEN [3]: 14.33 mg/dL
CARBON DIOXIDE [3]: 31 mmol/L
CHLORIDE [3]: 99 MEQ/L
CHOLESTEROL [3]: 72 mg/dL
CREATINE PHOSPHOKINASE [3]: 285 u/L
CREATININE [3]: 0.26 mg/dL
GLUCOSE [3]: 136.67 mg/dL
LACTATE DEHYDROGENASE [3]: 100.67 u/L
LIPASE [3]: 11.67 u/L
PHOSPHORUS [3]: 10.87 mg/dL
POTASSIUM [3]: 5.62 MEQ/L
SODIUM [3]: 144.1 MEQ/L
TOTAL BILIRUBIN [3]: 0.1 mg/dL
TOTAL PROTEIN [3]: 5.9 G/DL
URIC ACID [3]: 0.63 mg/dL
